According to US12012411B2, “Viral replication inhibitors” (Katholieke Universiteit Leuven, priority 2011, dated 2024):

Columns and labels:
in vitro = details: African green monkey, uninfected quiescent Vero-B cells
DENV-2 NGC = assay: Antiviral activity against DENV-2 NGC in Vero-B cells (viral RNA load by RT-qPCR); assay type: cell-based, Dengue virus; details: Dengue virus, DENV2, Vero B, DENV-2 in Vero-B cells; inhibition of viral RNA replication by 50% (Table 3)

Work on `CCOc1cccc(NC(C(=O)c2c[nH]c3ccccc23)c2ccccc2)c1` (centres unmarked) [CPD-003] yielded a CC50 at 4 days (in vitro) of 13 µM and an EC50 (DENV-2 NGC) of 0.11 µM.

With `O=C(c1c[nH]c2ccccc12)C(Nc1cccc(Cl)c1)c1ccccc1` (centres unmarked) [CPD-006] the CC50 at 4 days (in vitro) was 6 µM and the EC50 (DENV-2 NGC) was 0.75 µM.

`O=C(c1c[nH]c2ccccc12)C(Nc1ccc(F)c(F)c1)c1ccccc1` (centres unmarked) [CPD-007] gave a CC50 at 4 days (in vitro) of 5 µM and an EC50 (DENV-2 NGC) of 2.53 µM.

Compound `O=C(c1c[nH]c2ccccc12)C(Nc1cccc(C(F)(F)F)c1)c1ccccc1` (centres unmarked) [CPD-009] has a CC50 at 4 days (in vitro) of 4 µM and an EC50 (DENV-2 NGC) of 0.66 µM.

Compound `COc1cc(NC(C(=O)c2c[nH]c3ccccc23)c2ccccc2)cc(C(F)(F)F)c1` (centres unmarked) [CPD-014] has a CC50 at 4 days (in vitro) of 8 µM and an EC50 (DENV-2 NGC) of 0.02 µM.

Compound `COc1cccc(N(C)C(C(=O)c2c[nH]c3ccccc23)c2ccccc2)c1` (centres unmarked) [CPD-018] has a CC50 at 4 days (in vitro) of 19 µM and an EC50 (DENV-2 NGC) of 0.37 µM.

In the case of `Cc1cc(NC(C(=O)c2c[nH]c3ccccc23)c2ccccc2)no1` (centres unmarked) [CPD-022], the CC50 at 4 days (in vitro) is reported as 77 µM and the EC50 (DENV-2 NGC) is reported as 12.8 µM.

With `COc1cccc(NC(C(=O)c2c[nH]c3ccccc23)c2cccs2)c1` (centres unmarked) [CPD-024] the CC50 at 4 days (in vitro) was 14 µM and the EC50 (DENV-2 NGC) was 0.5 µM.

Work on `COc1cccc(NC(C(=O)c2c[nH]c3ccccc23)c2nccn2C)c1` (centres unmarked) [CPD-026] yielded a CC50 at 4 days (in vitro) of over 138 µM and an EC50 (DENV-2 NGC) of 17.2 µM.

In the case of `COc1cccc(NC(C(=O)c2c[nH]c3ccccc23)c2ncc[nH]2)c1` (centres unmarked) [CPD-028], the CC50 at 4 days (in vitro) is reported as over 144 µM and the EC50 (DENV-2 NGC) is reported as 135 µM.

Compound `O=C(c1c[nH]c2ccccc12)C(Nc1ccnc(O)c1)c1ccccc1` (centres unmarked) [CPD-031] has a CC50 at 4 days (in vitro) of over 145 µM and an EC50 (DENV-2 NGC) of 50.2 µM.

For `O=C(c1c[nH]c2ccccc12)C(NCc1ccccn1)c1ccccc1` (centres unmarked) [CPD-032], the CC50 at 4 days (in vitro) was over 146 µM and the EC50 (DENV-2 NGC) was 55.5 µM.

For `O=C(c1c[nH]c2ccccc12)C(NCc1cccs1)c1ccccc1` (centres unmarked) [CPD-033], the CC50 at 4 days (in vitro) was 71 µM and the EC50 (DENV-2 NGC) was 9.15 µM.

In the case of `O=C(c1c[nH]c2ccccc12)C(NCc1ccco1)c1ccccc1` (centres unmarked) [CPD-034], the CC50 at 4 days (in vitro) is reported as over 151 µM and the EC50 (DENV-2 NGC) is reported as 46.5 µM.

`COc1cccc(NC(C(=O)c2c[nH]c3ccccc23)c2cccc(C#N)c2)c1` (centres unmarked) [CPD-041] gave a CC50 at 4 days (in vitro) of 14 µM and an EC50 (DENV-2 NGC) of 0.5 µM.

Work on `COc1cccc(NC(C(=O)c2c[nH]c3ccccc23)c2cnn(C)c2)c1` (centres unmarked) [CPD-042] yielded a CC50 at 4 days (in vitro) of over 138 µM and an EC50 (DENV-2 NGC) of 12.5 µM.

Compound `CCc1cccc(NC(C(=O)c2c[nH]c3ccccc23)c2ccccc2)c1` (centres unmarked) [CPD-046] has a CC50 at 4 days (in vitro) of 17 µM and an EC50 (DENV-2 NGC) of 0.65 µM.

For `COc1cccc(NC(C(=O)c2c[nH]c3ccccc23)c2cccc3cnccc23)c1` (centres unmarked) [CPD-047], the CC50 at 4 days (in vitro) was 16 µM and the EC50 (DENV-2 NGC) was 0.42 µM.

Compound `COc1cccc(NC(C(=O)c2c[nH]c3ccccc23)c2ccc(-c3cncnc3)cc2)c1` (centres unmarked) [CPD-048] has a CC50 at 4 days (in vitro) of over 115 µM and an EC50 (DENV-2 NGC) of 2.09 µM.

For `O=C(c1c[nH]c2ccccc12)C(Nc1ccc2nccnc2c1)c1ccccc1` (centres unmarked) [CPD-050], the CC50 at 4 days (in vitro) was 87 µM and the EC50 (DENV-2 NGC) was 2.4 µM.

Work on `CNS(=O)(=O)c1cccc(NC(C(=O)c2c[nH]c3ccccc23)c2ccccc2)c1` (centres unmarked) [CPD-052] yielded a CC50 at 4 days (in vitro) of 52 µM and an EC50 (DENV-2 NGC) of 3.72 µM.

Compound `COc1cccc(NC(C(=O)c2c[nH]c3ccccc23)c2cccc(-c3cncnc3)c2)c1` (centres unmarked) [CPD-054] has a CC50 at 4 days (in vitro) of over 115 µM and an EC50 (DENV-2 NGC) of 2.09 µM.

With `O=C(c1c[nH]c2ccccc12)C(Nc1cccc(-n2cncn2)c1)c1ccccc1` (centres unmarked) [CPD-058] the CC50 at 4 days (in vitro) was 64 µM and the EC50 (DENV-2 NGC) was 2.85 µM.

`O=C(c1c[nH]c2ccccc12)C(Nc1cccc(-c2cnco2)c1)c1ccccc1` (centres unmarked) [CPD-059] showed a CC50 at 4 days (in vitro) of 16 µM and an EC50 (DENV-2 NGC) of 1.25 µM.

Work on `COc1cccc(NC(C(=O)c2c[nH]c3ccccc23)c2ccc3c(c2)n(C)c(=O)n3C)c1` (centres unmarked) [CPD-060] yielded a CC50 at 4 days (in vitro) of over 113 µM and an EC50 (DENV-2 NGC) of 10.3 µM.

`COc1cc(NC(C(=O)c2c[nH]c3ccccc23)c2ccc(C#N)cc2)ccn1` (centres unmarked) [CPD-061] showed a CC50 at 4 days (in vitro) of 59 µM and an EC50 (DENV-2 NGC) of 1.71 µM.

With `COc1cc(C)nc(NC(C(=O)c2c[nH]c3ccccc23)c2ccccc2)n1` (centres unmarked) [CPD-062] the CC50 at 4 days (in vitro) was over 134 µM and the EC50 (DENV-2 NGC) was 0.58 µM.

For `COc1cccc(NC(C(=O)c2c[nH]c3ccccc23)c2ccc(O)nc2)c1` (centres unmarked) [CPD-063], the CC50 at 4 days (in vitro) was over 134 µM and the EC50 (DENV-2 NGC) was 14.3 µM.

In the case of `COc1cc(NC(C(=O)c2c[nH]c3ccccc23)c2cn3ccccc3n2)ccn1` (centres unmarked) [CPD-064], the CC50 at 4 days (in vitro) is reported as 72 µM and the EC50 (DENV-2 NGC) is reported as 8.75 µM.

With `NC(=O)c1cccc(NC(C(=O)c2c[nH]c3ccccc23)c2ccccc2)c1` (centres unmarked) [CPD-065] the CC50 at 4 days (in vitro) was 90 µM and the EC50 (DENV-2 NGC) was 12.1 µM.

Compound `CCOC(=O)c1cccc(NC(C(=O)c2c[nH]c3ccccc23)c2ccccc2)c1` (centres unmarked) [CPD-068] has a CC50 at 4 days (in vitro) of 12 µM and an EC50 (DENV-2 NGC) of 1.32 µM.

`COc1cc(NC(C(=O)c2c[nH]c3cc(Cl)ccc23)c2cn3ccccc3n2)ccn1` (centres unmarked) [CPD-069] gave a CC50 at 4 days (in vitro) of 71 µM and an EC50 (DENV-2 NGC) of 2.13 µM.

With `O=C(O)c1cccc(NC(C(=O)c2c[nH]c3ccccc23)c2ccccc2)c1` (centres unmarked) [CPD-071] the CC50 at 4 days (in vitro) was 135 µM and the EC50 (DENV-2 NGC) was 60.9 µM.

For `COc1cc(NC(C(=O)c2c[nH]c3ccccc23)c2ccccc2)ncn1` (centres unmarked) [CPD-072], the CC50 at 4 days (in vitro) was 68 µM and the EC50 (DENV-2 NGC) was 6.84 µM.

Compound `COc1cc(NC(C(=O)c2c[nH]c3cc(Cl)ccc23)c2ccccc2)ccn1` (centres unmarked) [CPD-073] has a CC50 at 4 days (in vitro) of 76 µM and an EC50 (DENV-2 NGC) of 2.35 µM.

Compound `COc1cc(NC(C(=O)c2c[nH]c3ccccc23)c2cccnc2)ccn1` (centres unmarked) [CPD-074] has a CC50 at 4 days (in vitro) of 77 µM and an EC50 (DENV-2 NGC) of 0.81 µM.

`COc1cc(NC(C(=O)c2c[nH]c3cc(F)ccc23)c2ccccc2)ccn1` (centres unmarked) [CPD-075] showed a CC50 at 4 days (in vitro) of 102 µM and an EC50 (DENV-2 NGC) of 1.52 µM.

`COc1ccc2c(C(=O)C(Nc3ccnc(OC)c3)c3ccccc3)c[nH]c2c1` (centres unmarked) [CPD-076] showed a CC50 at 4 days (in vitro) of 115 µM and an EC50 (DENV-2 NGC) of 3.77 µM.

Compound `COc1ccc2[nH]cc(C(=O)C(Nc3ccnc(OC)c3)c3ccccc3)c2c1` (centres unmarked) [CPD-078] has a CC50 at 4 days (in vitro) of 109 µM and an EC50 (DENV-2 NGC) of 11.6 µM.

`COc1cccc(NC(C(=O)c2c[nH]c3ccccc23)c2cn3c(n2)COCC3)c1` (centres unmarked) [CPD-080] showed a CC50 at 4 days (in vitro) of over 124 µM and an EC50 (DENV-2 NGC) of 0.99 µM.

With `COc1cc(NC(C(=O)c2c[nH]c3ccccc23)c2cn3c(F)cccc3n2)ccn1` (centres unmarked) [CPD-081] the CC50 at 4 days (in vitro) was 50 µM and the EC50 (DENV-2 NGC) was 10.8 µM.

Work on `COc1cc(NC(C(=O)c2c[nH]c3ccccc23)c2cscn2)ccn1` (centres unmarked) [CPD-082] yielded a CC50 at 4 days (in vitro) of 109 µM and an EC50 (DENV-2 NGC) of 61.9 µM.

`COC(=O)c1ccc2c(C(=O)C(Nc3cccc(OC)c3)c3ccccc3)c[nH]c2c1` (centres unmarked) [CPD-085] gave a CC50 at 4 days (in vitro) of 16 µM and an EC50 (DENV-2 NGC) of 0.07 µM.

With `COc1cccc(NC(C(=O)c2c[nH]c3ccccc23)c2cn3cccc(C)c3n2)c1` (centres unmarked) [CPD-088] the CC50 at 4 days (in vitro) was over 121 µM and the EC50 (DENV-2 NGC) was 2.53 µM.

Work on `COc1ccnc(NC(C(=O)c2c[nH]c3ccccc23)c2ccccc2)n1` (centres unmarked) [CPD-089] yielded a CC50 at 4 days (in vitro) of over 139 µM and an EC50 (DENV-2 NGC) of 0.67 µM.

Compound `COc1cc(NC(C(=O)c2c[nH]c3ccccc23)c2ccc(F)cc2)ccn1` (centres unmarked) [CPD-090] has a CC50 at 4 days (in vitro) of 13 µM and an EC50 (DENV-2 NGC) of 2.9 µM.

Work on `COc1cc(NC(C(=O)c2c[nH]c3cc(C#N)ccc23)c2ccccc2)ccn1` (centres unmarked) [CPD-093] yielded a CC50 at 4 days (in vitro) of 87 µM and an EC50 (DENV-2 NGC) of 16.8 µM.

Work on `COc1cccc(NC(C(=O)c2c[nH]c3cc(C#N)ccc23)c2ccccc2)c1` (centres unmarked) [CPD-094] yielded a CC50 at 4 days (in vitro) of 11 µM and an EC50 (DENV-2 NGC) of 0.14 µM.

In the case of `COc1cccc(NC(C(=O)c2c[nH]c3ccccc23)c2cn3ccc(C)cc3n2)c1` (centres unmarked) [CPD-096], the CC50 at 4 days (in vitro) is reported as over 121 µM and the EC50 (DENV-2 NGC) is reported as 2.9 µM.

`COc1cc(NC(C(=O)c2c[nH]c3ccccc23)c2ccc3[nH]ccc3c2)ccn1` (centres unmarked) [CPD-097] showed a CC50 at 4 days (in vitro) of 12 µM and an EC50 (DENV-2 NGC) of 2.32 µM.

`COc1cccc(NC(C(=O)c2c[nH]c3ccccc23)c2cn3cc(C)ccc3n2)c1` (centres unmarked) [CPD-098] showed a CC50 at 4 days (in vitro) of over 121 µM and an EC50 (DENV-2 NGC) of 10.7 µM.

`COc1cc(NC(C(=O)c2c[nH]c3ccc(Cl)cc23)c2ccccc2)ccn1` (centres unmarked) [CPD-099] showed a CC50 at 4 days (in vitro) of 12 µM and an EC50 (DENV-2 NGC) of 1.76 µM.
